{"source": "patent US20090069441A1", "about": "“Motuporamine Mimic Agents” (priority 2006, published 2009)", "key": {"[1]": {"test_system": "Drosophila imaginal leg discs", "experiment": "Imaginal disc eversion assay", "assay_type": "cell-based, Drosophila melanogaster", "details": "Drosophila melanogaster, 15 hr incubation in Robb's medium", "description": "DihydroMotuporamine C, 4a, was used to develop an imaginal disc assay in Drosophila flies. The imaginal leg discs were collected by microscopic dissection from maggots. […] Inhibition was measured as failure of the disc to fully develop into a fly leg after 15 hr of incubation in Robb's growth medium. This presumably occurs by overactivation of Rho, an important signaling pathway in development. Hyper-stimulation of this pathway is sufficient to block development of the fly leg.\nFly Stocks: 20 female and 5 male wild type Oregon variant of Drosophila melanogaster interbred in blue food medium for 24 hours then flies are removed. Third instar wall-crawling larvae collected then dissected on the sixth day. Flies kept in 25° C. incubation chamber.\nBlue Food Preparation: Standard corn meal medium heated then mixed completely with aqueous 1% Bromophenol Blue. The food medium is cooled for one day or more before use.\nDissection Medium: Ringer's Buffer with 10 uL 0.1% BSA. Ringer's Medium consists of 130 mM NaCl, 5 mM KCl, 1.5 mM CaCl2-2H2O, Stored at room temperature (23° C.), BSA added before dissection.\nCultivation Medium: Minimal Robb's Medium with 10 uL 0.1% BSA. Minimal Robb's Medium consists of 40 mM KCl, 0.4 mM KH2PO4, 40 mM NaCl, 0.4 mM NaH2PO4.7H2O, 1.2 mM MgSO4.7H2O, 1.2 mM MgCl2-6H2O, 1 mM CaCl2-2H2O, 10 mM Glucose, 0.2 mM L-asparagine, 4.0 mM L-glutamine, 0.16 mM Glycine, 0.64 mM L-leucine, 0.32 mM L-proline, 0.16 mM R-Serine, 0.64 mM L-valine. Stored at −25° C. One day before dissection, aliquot defrosted in 4° C. Add BSA then warmed to room temperature (23° C.) before dissection.\n0.1% BSA: 0.1 g BSA fraction V (Sigma#A-9647) in 10 mL distilled H2O, Stored at 4° C.\nDevelopmental Hormone: 1 mg 20-hydroxyecdysone (Sigma #H-5142) in 1 mL 100% Ethanol. Stored at −25° C. Before use, stock is diluted 10× (1 mL added to 9 mL of 100% Ethanol). 10 μL of diluted 20-hydroxyecdysone is added to culture.\nDissection Procedures: Third instar larvae are removed from cultivation bottle with a wetted brush and washed in dH2O to remove food medium clinging to larvae. The cleaned larvae are dissected in Ringer's Medium using forceps. The imaginal discs are washed in fresh Ringer's Medium, and then cultivated with 1 mL of Robb's Medium in 12-well culture plate. Each culture well should have 30˜40 imaginal discs.\nCulturing Procedures: In a larger container, place the 12-well culture plate on a moist towel, then seal the large container. Cultivate at 25° C. for 15 hours. Evaluation: Three categories will be used to grade the eversion of each imaginal disc. Full Eversion—the leg is fully extended from the disc. Partial Eversion—the leg is protruding from the epithelial. No Eversion—no sign of any protrusion."}, "CHO cells": {"test_system": "CHO cells", "details": "data originally reported in Ref; cited from earlier work"}, "[2]": {"molecular_target": "polyamine transporter (PAT)", "details": "data originally reported in Ref; read-out: L1210 Ki value; cited from earlier work"}, "CHO-MG cells": {"test_system": "CHO-MG cells", "experiment": "Cytotoxicity in PAT-deficient CHO-MG cells", "assay_type": "cell-based, Chinese hamster", "details": "Cricetulus griseus, CHO-MG", "text": "In terms of Table 1, L1210 cells are mouse leukemia cells and are the gold standard in terms of evaluating polyamine cytotoxicity data due to a plethora of prior data in this cell line for other polyamine structures. Clearly 7a was similar in all respects to 4a (Table 1). […] The lower the Ki value, the higher the affinity of the drug for the polyamine transporter (PAT) on the cell surface. Chinese hamster ovary (CHO) cells and a mutant line without an active PAT (CHO-MG) also evaluated the PAT selectivity of these drugs.\nCHO and CHO-MG studies. Chinese hamster ovary (CHO) cells were chosen along with a mutant cell line (CHO-MG) in order to comment on how the synthetic conjugates gain access to cells. The CHO-MG cell line is polyamine-transport deficient and was isolated after selection for growth resistance to methylglyoxalbis(guanylhydrazone), MGBG, (CH3C[═N—NHC(═NH)NH2]CH[═N—NHC(═NH)NH2]) using a single-step selection after mutagenesis with ethylmethanesulfonate (Mandel et al., J. Cell. Physiol., 1978, 97, 335-344; Byers et al., Biochem. J. 1989, 263, 745-752).\nFor the purposes of this study, the CHO-MG cell line represents cells with no PAT activity and provided a model for alternative modes of entry or action, which are independent of PAT. These alternative modes of entry include passive diffusion or utilization of another transporter. The alternative modes of action may also include interactions on the outer surface of the plasma membrane or other membrane receptor interactions.\nBiological studies. Murine leukemia cells (L1210), CHO and CHO-MG cells were grown in RPMI medium supplemented with 10% fetal calf serum, glutamine (2 mM), penicillin (100 U/mL), streptomycin (50 μg/mL). L-Proline (2 μg/mL) was added to the culture medium for CHO-MG cells. Cells were grown at 37° C. under a humidified 5% CO2 atmosphere. […] Trypan blue staining was used to determine cell viability before the initiation of a cytotoxicity experiment. Cells in early to mid log-phase were used. IC50 determinations. Cell growth was assayed in sterile 96-well microtiter plates (Becton-Dickinson, Oxnard, Calif., USA). L1210 cells were seeded at 5e^4 cells/mL of medium (100 μL/well). CHO and CHO-MG cells were plated at 2e^3 cells/mL. Drug solutions (10 μL per well) of appropriate concentration were added at the time of seeding for L1210 cells and after an overnight incubation for the CHO cell lines. After exposure to the drug for 48 hr, cell growth was determined by measuring formazan formation from 3-(4,5-dimethylthiazol-2-yl)2,5-diphenyltetrazolium using a Titertek Multiskan MCC/340 microplate reader for absorbance (540 nm) measurements (Mosmann, T., J. Immunol. Methods 1983, 65, 55-63)."}}, "note": "Where two headings read alike, the source gives them in different places."}
{"smiles": "NCCCCNCCCCNCc1c2ccccc2cc2ccccc12", "note": "[Compound 6b]", "values": [{"measurement": "inhibition at 18 µM", "setting": "[1]", "value": 97, "unit": "%"}, {"measurement": "IC50 Ratio (CHO-MG/CHO), a measure of PAT selectivity", "setting": "CHO cells", "value": 148}, {"measurement": "Ki", "setting": "[2]", "value": 1.8, "unit": "µM"}, {"measurement": "IC50", "setting": "CHO-MG cells; absence of AG, 48 h, read-out: CHO-MG IC50 w/o AG", "value": 7.05, "unit": "µM"}, {"measurement": "IC50", "setting": "CHO-MG cells; in the presence of AG, 48 h at 37° C., read-out: CHO-MG IC50", "value": 66.7, "unit": "µM"}]}
{"smiles": "CCN(CCCNCCCN)Cc1c2ccccc2cc2ccccc12", "note": "[Compound 7a, N-(3-Amino-propyl)-N′-anthracen-9-ylmethyl-N′-ethyl-propane-1,3-diamine]", "values": [{"measurement": "inhibition at 18 µM", "setting": "[1]", "value": 95, "unit": "%"}, {"measurement": "IC50", "setting": "CHO-MG cells; 48 h incubation, new data, read-out: CHO-MG IC50", "value": 4, "unit": "µM"}]}
